Results from PubChem BioAssay (NCI).
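Five compound concentrations were applied to cells in 96-well plates for 48 hours; endpoints were derived by simple linear interpolation of the resulting dose-response curve. The concentration for 50% growth inhibition is given as GI50. At the TGI there is no net growth.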

Tests used:
Experiment in all cases: inhibition of tumour cell growth, NCI panel, 48 h
[1] = tested on: COLO 205 colon
[2] = tested on: EKVX NSCLC
[3] = tested on: SK-MEL-28 melanoma
[4] = tested on: SK-OV-3 ovarian
[5] = tested on: SR leukemia
[6] = tested on: SN12C renal
[7] = tested on: K-562 leukemia
[8] = tested on: M14 melanoma
[9] = tested on: NCI-H23 lung
[10] = tested on: RXF 393 renal

SMILES	TGI [1]	TGI [2]	TGI [3]	TGI [4]	TGI [5]	TGI [6]	TGI [7]	TGI [8]	TGI [9]	GI50 [1]	GI50 [3]	GI50 [4]	GI50 [5]	GI50 [6]	GI50 [7]	GI50 [8]	GI50 [10]	TGI [10]	GI50 [9]	GI50 [2]
COc1ccc(-c2cc(=O)c3c(O)c(OC)c(OC)c(OC)c3o2)cc1OC	> 100 µM	> 100 µM	> 100 µM	81 µM	> 100 µM	> 100 µM	> 100 µM	> 100 µM	> 100 µM	–	–	–	–	–	–	–	–	–	–	–
O=C1NC(=NCc2ccccc2Cl)S/C1=C\c1ccc2ncccc2c1	> 25 µM	–	> 25 µM	> 25 µM	> 19.6 µM	> 25 µM	> 25 µM	> 25 µM	> 25 µM	8.04 µM	> 25 µM	15.6 µM	1.04 µM	13.1 µM	12.7 µM	16.3 µM	8.49 µM	> 25 µM	13.5 µM	–
C[C@@]1([C@H](OC(=O)c2ccccc2)C(N)=O)CO1	43 µM	62.4 µM	53.2 µM	66 µM	–	33.9 µM	> 100 µM	53.9 µM	61.5 µM	22.5 µM	20.6 µM	28.3 µM	–	13.7 µM	5.67 µM	22.1 µM	18 µM	43.5 µM	20.2 µM	24.2 µM
COc1cc2cc(Oc3ccc(NC(=O)Nc4cc(C(F)(F)F)cc(C(F)(F)F)c4)cc3)c(C)nc2cc1OCCN1CCOCC1	2.18 µM	6.68 µM	6.94 µM	8.5 µM	–	5.48 µM	5.5 µM	5.88 µM	6.69 µM	1.02 µM	1.8 µM	2.09 µM	–	1.49 µM	1.41 µM	1.51 µM	1.12 µM	2.99 µM	1.66 µM	1.64 µM
COc1cc([N+](=O)[O-])c(OC)cc1-c1nc2sc(C)c(C)n2c1/C(N)=N/C(=N)N	> 100 µM	> 100 µM	> 100 µM	–	–	–	–	> 100 µM	> 100 µM	13.6 µM	> 100 µM	–	–	–	–	> 100 µM	> 100 µM	> 100 µM	> 100 µM	> 100 µM
O=C1C(c2ccccc2)=C(c2ccccc2)C(c2ccc(Cc3ccc(C4=C(c5ccccc5)C(=O)C(c5ccccc5)=C4c4ccccc4)cc3)cc2)=C1c1ccccc1	> 100 µM	> 100 µM	–	> 100 µM	> 100 µM	–	> 100 µM	–	> 100 µM	–	–	–	–	–	–	–	–	> 100 µM	–	–
COc1ccc2nc3cc(Cl)ccc3c(NCCCNCCO)c2c1	1.14 µM	4.19 µM	3.06 µM	3.33 µM	–	2.48 µM	2.4 µM	2.16 µM	2.48 µM	0.241 µM	1.38 µM	0.635 µM	–	0.371 µM	0.383 µM	0.562 µM	0.58 µM	2.22 µM	0.499 µM	1.17 µM
Cc1nc(N)nc(N)c1CCCCc1ccc(N)cc1	28 µM	27.3 µM	23.5 µM	16.6 µM	24.7 µM	16.9 µM	16.4 µM	18.4 µM	15.8 µM	–	–	–	–	–	–	–	–	–	–	–
